Laboratory results reported in US20090209473A1, “Componds and methods for pormoting angiogenesis” (priority 2003, published 2009).
Values joined by “and” are separate entries in the source; they are usually repeats but may differ in a detail not shown here. Identical values can stand only once.

What was measured:
[1] = system: Human umbilical vein endothelial cells (HUVEC); test: HUVEC cluster sprouting in collagen gel (Example 1 in vitro model); assay type: cell-based; conditions: for sprout length versus cells receiving VEGF only: co-administered with VEGF
Method: Human umbilical vein endothelial cells (HUVEC) were used to evaluate various gamma-secretase inhibitors for potential angiogenesis effect. A 72 cm2 flask of confluent cells (1.5-2 E6 cells) was trypsinized with 3.5 ml trypsin/EDTA. After a maximum of 3 minutes, the cells were rinsed with 1.5 ml serum then centrifuged at 200 g for 3 minutes. After centrifugation, the supernatant was discarded and the cells resuspended in medium (endothelial cell growth medium (Promocell) with additional 10% serum). Cell concentration was diluted to 2.0×10^4 cells/ml in medium supplemented with 20% methocel stock solution. The cells were clustered in hanging drops of 20 μl (400 cells) overnight.
To imbed the cells in gel, the drops were first rinsed with PBS. The clusters were centrifuged at 200 g for 3 minutes and the supernatant removed. Centrifuge tubes were then briefly drawn over a rough surface to loosen the pellet. The clusters were resuspended in ice cold methocel stock solution supplemented with 20% protein. An equal amount of collagen I-gel at 3 mg/ml (Becton-Dickinson) was carefully mixed with the cells. Immediately thereafter, 1000 μl of the gel/cell cluster mixture was added to each well of a preheated (37° C.) 24-well plate. The plate was incubated for 30 minutes at 37° C., 5% CO2 and 100% humidity. One hundred μl of medium, along with the desired test substance and optionally 2.5 μl of 10 μg/ml VEGF were added to each well to a final concentration in the top medium of 250 ng/ml and 25 ng/ml in the well. Negative control cells received medium only and positive control cells received medium and VEGF only. The wells without gel were given 1 ml PBS.
To quantify the results, ten clusters from each […] were photographed. The length of the five longest sprouts on each cluster was measured, and the sum of the sprout length from each cluster calculated. Average values from ten clusters were obtained.
The above-mentioned methocel stock solution was prepared by autoclaving 6 grams of pure methyl cellulose powder (Sigma) in a 500 ml flask containing a magnetic stirrer. After autoclaving the methyl cellulose was dissolved in 250 ml of basal medium preheated to 60° C. for 20 minutes. An additional 250 ml of basal medium at room temperature was added to a final volume of 500 ml and the solution stirred overnight. Finally, the stock solution was aliquotted and cleared through centrifugation at 5000g for 2 hours at room temperature. The 90-95% of the material which became the clear, highly viscous supernatant was used.

[2] = system: HUVEC spheroids; test: HUVEC spheroid sprouting, cumulative sprout length (Example 5 modified in vitro model); assay type: cell-based, Human; conditions: for sprout length versus control across concentrations: 100, 20, 4, 0.8, 0.16, 0.032 μM
Method: Similar to the approach described in Example 1, two further compounds were evaluated for their ability to initiate or increase angiogenesis. HUVEC spheroids were prepared by pipetting 400 HUVE cells (PromoCell, Heidelberg, Germany, cultured according to supplier's instructions) into each well of non-adhesive 96-well plates and allowed to aggregate overnight. After harvesting, 48 spheroids were seeded in 900 μl of methocel-collagen solution and pipetted into individual wells in a 24-well plate, allowing for collagen gel polymerization. After 30 minutes, freshly-prepared test compounds were added (prepared by dissolving lyophilized compound at a concentration of 10 mM in DMSO, specific concentrations administered described below) by pipetting 100 μl of a 10-fold concentrated working dilution on top of the gel. At the end of the incubation period the dishes were fixed for 24 hours at 37° C. with paraformaldehyde.
Sprouting intensity of endothelial cells was quantitated by an image analysis system determining the cumulative sprout length per spheroid using an Olympus IX50 inverted microscope and Olympus image analysis software. The mean of the cumulative sprout length of 10 randomly selected spheroids was analyzed as an individual data point.

[3] = system: Oxygen-induced retinopathy mice; test: Oxygen-induced retinopathy mouse model, retinal whole mount analysis; assay type: in vivo
Excerpt: Oxygen-induced retinopathy mice were used to determine the extent and effect of gamma-secretase inhibitors on the angiogenic process. Mice with oxygen induced retinopathy (OIR mice) are a commonly-used model and are described in the literature (see, Smith et al, supra). They are at times referred to as retinopathy of prematurity models or ROP mice. The model takes advantage of the fact that full term mice pups are born with an immature retinal vascularization which matures during the first three weeks of postnatal growth. Briefly, neonatal mice (NMRI/C57b1) from the same litter were placed, with their nursing mother, in a hyperoxic environment (75% oxygen) at age day seven. After exposure to the hyperoxic environment for 5 days, the 12-day old pups were removed to normal air. In the treated mice, DAPT was administered once daily during age days 12-16. Control pups were treated the same way but injected with the vehicle. At post natal day 17 the mice were euthanized and the retinas were prepared for whole mount immunohistochemistry. Except for the mode of injection, the stock solution of DAPT was prepared and administered essentially as described in Lanz et al., (2003, J. Pharmacol. Exp. Ther. 305:864-71). In short, 5 mg DAPT was dissolved in 25 μl 99.5% EtOH and then dissolved in 475 μl Corn oil (Sigma, Catalog No. C8267). If precipitate formed, the solution was heated to 70° C. for 2-3 minutes. The pups were injected subcutaneously once a day according to: V(μl)=weight (g)*10, that is, 100 mg DAPT/kg body weight. Control pups were injected subcutaneously once a day with the same amount of vehicle (i.e. 5% EtOH in corn oil). Eyes were fixed in 4% PFA in PBS at 4° C. overnight and washed in PBS. […] This can be quantified in the superficial capillary plexus by counting the number of capillary enclosed areas in the peripheral part of the retina.

[4] = system: new born mice; test: Physiological retinal angiogenesis in new born (non-OIR) mice; assay type: in vivo; conditions: administered postnatal days 3 and 4, retinas analysed day 5
Method: To investigate if the increased retinal vascularization after DAPT treatment was restricted to the OIR, the effect of DAPT on physiological angiogenesis in new born mice was investigated. DAPT was administered to new born mice on postnatal days 3 and 4 and retinas were analyzed at day 5 as described above. […] This can be observed by comparing the degree of vascularization in the retina of control animals, FIGS. 20 and 21, with that of treated animals as shown in FIGS. 22 and 23. Except for the increased vascular density, the vascular architecture was normal. The growth of the vascular network towards the periphery and the arterio-venous specification were intact for DAPT-treated mice as with controls.

[5] = 100 μM test compound co-administered with 25 ng/ml VEGF-A
[6] = 100 μM test compound, no VEGF-A

In the case of CC1(C)[C@@H]2CC[C@@](C)(C2)[C@@H]1NS(=O)(=O)c1ccc(F)cc1 [1-(S)-endo-N-(1,3,3)-Trimethylbicyclo[2.2.1]hept-2-yl)-4-fluorophenyl Sulfonamide], the average sprout length ([1]; 0.16 μM test compound, no VEGF) was 280 μm, the “increase in length versus control cells” value ([1]; 0.16 μM, no VEGF) was 100% and the average sprout length ([1]; 20 μM test compound co-administered with VEGF) was 480 μm.
C[C@H](NC(=O)C(O)c1cc(F)cc(F)c1)C(=O)N[C@H]1N=C(c2ccccc2)c2ccccc2N(C)C1=O (stereo partly drawn) [Compound X, S-3-[N′-(3,5-difluorophenyl-alpha-hydroxyacetyl)-L-alanilyl]amino-2,3-dihydro-1-methyl-5-phenyl-1H-1,4-benzodiazepin-2-one] was tested, and the “sprouting versus VEGF-A only” value ([2]; 4 μM test compound co-administered with VEGF-A) was “increase the sprouting significantly”, the “cumulative length of all sprouts (CSL)” value [2, 5] was 4289 μm and the “cumulative length of all sprouts (CSL)” value [2, 6] was 1630 μm. The “sprout length versus control across concentrations” value ([2]; no VEGF-A) was “Only the two lowest concentrations tested failed to produce longer sprouts that control”.
With C[C@H](NC(=O)Cc1cc(F)cc(F)c1)C(=O)N[C@H](C(=O)OC(C)(C)C)c1ccccc1 [DAPT] the “avascular zones in the central retina” value ([3]; 100 mg/kg s.c. once daily days 12-16, analysed day 17) was “almost completely lack the vascular-free zones”, the “number of capillary enclosed areas in the peripheral retina” value ([3]; 100 mg/kg s.c. once daily days 12-16, day 17, versus vehicle control) was “near doubling” and the “vascular (capillary) tufts in retina” value ([3]; 100 mg/kg s.c. once daily days 12-16, versus control) was “significant reduction in capillary tufts”. The average sprout length ([1]; 0.08 μM test compound, no VEGF, +/- SEM) was 330+/−28 μm, the average sprout length ([1]; 0.4 μm DAPT co-administered with VEGF) was 550+/−32 μm and the “sprout length at increasing levels” value ([1]; DAPT 0.4, 2, 10 and 50, no VEGF, versus 0.08 μM) was “further increases in sprout length”. For the same molecule, the “sprout length versus cells receiving VEGF only” value [1] was “increases in sprout length over those with VEGF alone”, the “peripheral retinal vascular density” value [4] was “increased peripheral vascular density” and the “vascular architecture of retina” value [4] was “normal”.
For CC(C)[C@H](O)C(=O)N[C@@H](C)C(=O)N[C@@H]1C(=O)N(C)CCc2ccccc21 [LY-450, 139, (N)—[(S)-2-hydroxy-3-methyl-butyryl]-1-(L-alaninyl)-(S)-1-amino-3-methyl-4,5,6,7-tetrahydro-2H-3-benzazepin-2-one], the “cumulative length of all sprouts (CSL)” value [2, 5] was 3521 μm, the “cumulative length of all sprouts (CSL)” value [2, 6] was 1730 μm and the “sprout length versus control across concentrations” value ([2]; no VEGF-A) was “lower concentrations were not found to be effective”. For the same molecule, the “sprout length versus VEGF-A only across concentrations” value ([2]; 100 to 0.032 μM co-administered with 25 ng/ml VEGF-A) was “Only the lowest concentration tested failed to produce longer sprouts that VEGF-A”.
COC(=O)[C@@H](NC(=O)[C@H](CC(C)C)NC(=O)N(Cc1ccccc1)C[C@@H](O)[C@H](Cc1ccccc1)NC(=O)OC(C)(C)C)C(C)C [WPE-III-31C] was tested, and the average sprout length ([1]; 0.16 μM test compound co-administered with VEGF) was 410 μm, the average sprout length ([1]; 0.16 μM test compound, no VEGF) was 230 μm and the “sprout length at increasing concentrations” value ([1]; WPE-III-31C 0.16, 0.8 and 4 μM, no VEGF) was “only increased with increasing concentrations”. The “sprout length versus cells receiving VEGF only” value [1] was “significantly longer sprout lengths than the control cells”.
In the case of VEGF, the average sprout length ([1]; VEGF only (positive control), 25 ng/ml in the well) was 460 μm and 370 μm and 320 μm and the “cumulative length of all sprouts (CSL)” value ([2]; VEGF-A only, 25 ng/ml) was 1794 μm and 1860+/−100 μm.
